The results in this text go back to PubChem BioAssay AID276 (DTP/NCI, 2004).

Values joined by “and” are separate entries in the source; they are usually repeats but may differ in a detail not shown here. Identical values can stand only once. Toxic doses and inconclusive results are not listed.

For this assay, the system named is B6C3F1 mice, Lewis lung carcinoma iv, survival T/C. Nature of the assay: NCI In Vivo Anticancer Drug Screen. Data for tumor model Lewis Lung Carcinoma (intravenous) in B6C3F1 mice. As to conditions: endpoint: median survival time, higher = longer survival. The gist of the method:
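Read-out is survival, expressed as the treated-group measurement over the vehicle control-group measurement. Animals bore a transplantable tumor and were given compound.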

[1] abbreviates: dose: 3.12 mg/kg/injection, schedule: Q01DX009 (ip), vehicle: Klucel (hydroxypropylcellulose) (HPC).
Setting [2] is: dose: 6.25 mg/kg/injection, schedule: Q01DX009 (ip), vehicle: Klucel (hydroxypropylcellulose) (HPC).
Setting [3] is: dose: 12.5 mg/kg/injection, schedule: Q01DX009 (ip), vehicle: Klucel (hydroxypropylcellulose) (HPC).
Where [4] appears, read: dose: 50.0 mg/kg/injection, schedule: Q01DX009 (ip), vehicle: Klucel (hydroxypropylcellulose) (HPC).
The mark [5] stands for this setting: dose: 25.0 mg/kg/injection, schedule: Q01DX009 (ip), vehicle: saline with Tween-80.
[6] abbreviates: dose: 50.0 mg/kg/injection, schedule: Q01DX009 (ip), vehicle: saline with Tween-80.
The mark [7] stands for this setting: dose: 100.0 mg/kg/injection, schedule: Q01DX009 (ip), vehicle: saline with Tween-80.
Where [8] appears, read: dose: 200.0 mg/kg/injection, schedule: Q01DX009 (ip), vehicle: saline with Tween-80.
[9] abbreviates: dose: 400.0 mg/kg/injection, schedule: Q01DX009 (ip), vehicle: saline with Tween-80.
The mark [10] stands for this setting: dose: 3.12 mg/kg/injection, schedule: Q01DX009 (ip), vehicle: saline with Tween-80.
Where [11] appears, read: dose: 6.25 mg/kg/injection, schedule: Q01DX009 (ip), vehicle: saline with Tween-80.
The mark [12] stands for this setting: dose: 12.5 mg/kg/injection, schedule: Q01DX009 (ip), vehicle: saline with Tween-80.
[13] abbreviates: dose: 25.0 mg/kg/injection, schedule: Q01DX009 (ip), vehicle: Klucel (hydroxypropylcellulose) (HPC).
The mark [14] stands for this setting: dose: 100.0 mg/kg/injection, schedule: Q01DX009 (ip), vehicle: Klucel (hydroxypropylcellulose) (HPC).

For `CCCC(=O)OCc1cc(=O)n(C)c2c3c4c(cc12)c(C)cc(=O)n4CO3`, the T/C was 91 % of control under setting [1], 97 % of control under setting [2], 92 % of control under setting [3] and 118 % of control under setting [4].
As for `CC(=O)Oc1[nH]c(=O)c2cccc3c2c1CCC3`, the T/C is 104 % of control under setting [5]; 122 % of control under setting [6]; 102 % of control under setting [7]; 107 % of control under setting [8]; 105 % of control under setting [9].
Turning to `O=C(C/C(=N\C(=S)Nc1cc(C(F)(F)F)ccc1Cl)NO)N1CCCC1`, the T/C is, setting by setting: under setting [5], 98 % of control and 101 % of control; under setting [6], 99 % of control and 105 % of control; under setting [7], 101 % of control and 111 % of control; under setting [8], 99 % of control.
In the case of `CC(=O)CC(=O)CCC(=O)O`, the T/C reads like this: (dose: 25.0 mg/kg/injection, schedule: Q01DX009 (ip), vehicle: saline) 98 % of control; (dose: 50.0 mg/kg/injection, schedule: Q01DX009 (ip), vehicle: saline) 103 % of control; (dose: 100.0 mg/kg/injection, schedule: Q01DX009 (ip), vehicle: saline) 102 % of control; (dose: 200.0 mg/kg/injection, schedule: Q01DX009 (ip), vehicle: saline) 105 % of control.
Consider `CCCCCC[Se][Se]CCCCCC`, for which the T/C was 97 % of control (dose: 1.56 mg/kg/injection, schedule: Q01DX009 (ip), vehicle: Klucel (hydroxypropylcellulose) (HPC)); 105 % of control under setting [1]; 100 % of control under setting [2]; 95 % of control under setting [3].
`CC(O)CCC(=O)c1ccoc1` (stereo not given): the T/C is, setting by setting: (dose: 0.62 mg/kg/injection, schedule: Q03HX027 (ip), vehicle: saline) 105 % of control; (dose: 1.25 mg/kg/injection, schedule: Q03HX027 (ip), vehicle: saline) 97 % of control; (dose: 2.5 mg/kg/injection, schedule: Q03HX027 (ip), vehicle: saline) 103 % of control; (dose: 5.0 mg/kg/injection, schedule: Q03HX027 (ip), vehicle: saline) 94 % of control.
As to `CC(CN1CC(=O)NC(=O)C1)N1CC(=O)NC(=O)C1` (stereo not given), the T/C (dose: 108.0 mg/kg/injection, schedule: Q04DX003 (ip), vehicle: Klucel (hydroxypropylcellulose) (HPC)) was 109 % of control; the T/C (dose: 180.0 mg/kg/injection, schedule: Q04DX003 (ip), vehicle: Klucel (hydroxypropylcellulose) (HPC)) was 119 % of control; the T/C (dose: 300.0 mg/kg/injection, schedule: Q04DX003 (ip), vehicle: Klucel (hydroxypropylcellulose) (HPC)) was 158 % of control.
For `N=c1ccc2nc3ccc(N)cc3sc-2c1`, the T/C is 113 % of control (dose: 6.25 mg/kg/injection, schedule: Q01DX009 (ip), vehicle: water); 117 % of control (dose: 12.5 mg/kg/injection, schedule: Q01DX009 (ip), vehicle: water); 93 % of control (dose: 25.0 mg/kg/injection, schedule: Q01DX009 (ip), vehicle: water).
On to `Cc1cc(=NO)cc(C)n1O`, for which the T/C (dose: 25.0 mg/kg/injection, schedule: Q01DX009 (ip), vehicle: distilled water + alcohol) was 105 % of control; the T/C (dose: 50.0 mg/kg/injection, schedule: Q01DX009 (ip), vehicle: distilled water + alcohol) is 95 % of control and 102 % of control; the T/C (dose: 100.0 mg/kg/injection, schedule: Q01DX009 (ip), vehicle: distilled water + alcohol) was 96 % of control and 102 % of control; the T/C (dose: 200.0 mg/kg/injection, schedule: Q01DX009 (ip), vehicle: distilled water + alcohol) is 97 % of control and 104 % of control; the T/C (dose: 400.0 mg/kg/injection, schedule: Q01DX009 (ip), vehicle: distilled water + alcohol) is 97 % of control and 102 % of control.
For the compound `Cc1cc(NCCN(C(C)C)C(C)C)nc(/N=C(\N)Nc2ccc(Cl)c(C(F)(F)F)c2)n1`, the T/C by setting is: (dose: 1.25 mg/kg/injection, schedule: Q01DX009 (ip), vehicle: Klucel (hydroxypropylcellulose) (HPC)) 93 % of control and 95 % of control; (dose: 2.5 mg/kg/injection, schedule: Q01DX009 (ip), vehicle: Klucel (hydroxypropylcellulose) (HPC)) 95 % of control and 100 % of control; (dose: 5.0 mg/kg/injection, schedule: Q01DX009 (ip), vehicle: Klucel (hydroxypropylcellulose) (HPC)) 94 % of control and 96 % of control; (dose: 10.0 mg/kg/injection, schedule: Q01DX009 (ip), vehicle: Klucel (hydroxypropylcellulose) (HPC)) 97 % of control and 117 % of control; (dose: 20.0 mg/kg/injection, schedule: Q01DX009 (ip), vehicle: Klucel (hydroxypropylcellulose) (HPC)) 94 % of control and 112 % of control.
Turning to `Cn1c2ccccc2c2ccc3c(c21)C(=O)C=CC3=O`, the T/C reads like this: (dose: 1.56 mg/kg/injection, schedule: Q01DX009 (ip), vehicle: saline with Tween-80) 99 % of control; under setting [10], 106 % of control; under setting [11], 107 % of control; under setting [12], 93 % of control and 101 % of control.
In the case of `O=C(O)C1(NO)CCCCC1`, the T/C by setting is: under setting [3], 95 % of control and 106 % of control; under setting [13], 101 % of control and 106 % of control; under setting [4], 100 % of control and 101 % of control; under setting [14], 102 % of control and 105 % of control; (dose: 200.0 mg/kg/injection, schedule: Q01DX009 (ip), vehicle: Klucel (hydroxypropylcellulose) (HPC)) 95 % of control and 108 % of control; (dose: 400.0 mg/kg/injection, schedule: Q01DX009 (ip), vehicle: Klucel (hydroxypropylcellulose) (HPC)) 97 % of control and 109 % of control.
With `COCCCNC1=C(C#N)C(=O)NC(c2cccc([N+](=O)[O-])c2)S1` (stereo not given), the T/C reads like this: under setting [12], 111 % of control; under setting [5], 93 % of control; under setting [6], 96 % of control; under setting [7], 104 % of control; under setting [8], 93 % of control; under setting [9], 98 % of control.
Turning to `CC(=O)C(=O)O.CC(=O)C(=O)O.[NH-]C1CCCCC1[NH-].[Pt+2]` (stereo not given), the T/C is 98 % of control (dose: 3.12 mg/kg/injection, schedule: Q01DX009 (ip), vehicle: other); 109 % of control (dose: 6.25 mg/kg/injection, schedule: Q01DX009 (ip), vehicle: other); 96 % of control (dose: 12.5 mg/kg/injection, schedule: Q01DX009 (ip), vehicle: other).
Consider `Cc1cc(NC(=S)SCc2ccc3c(c2)OCO3)ccc1Cl`, for which the T/C reads like this: under setting [13], 114 % of control; under setting [4], 114 % of control; under setting [14], 115 % of control.
As to `CCc1ccc(C2=C(O)C(=O)C(c3ccc(CC)cc3)=C(O)C2=O)cc1`, the T/C under setting [10] was 111 % of control; the T/C (dose: 6.0 mg/kg/injection, schedule: Q01DX009 (ip), vehicle: saline with Tween-80) was 105 % of control; the T/C under setting [11] is 111 % of control; the T/C (dose: 12.0 mg/kg/injection, schedule: Q01DX009 (ip), vehicle: saline with Tween-80) was 103 % of control; the T/C under setting [12] was 117 % of control; the T/C under setting [5] was 114 % of control and 88 % of control. Also, the T/C under setting [6] was 103 % of control and the T/C under setting [7] was 101 % of control.
In the case of `C1OCN2CSCC12` (stereo not given), the T/C under setting [12] was 103 % of control; the T/C under setting [5] was 103 % of control; the T/C under setting [6] is 102 % of control; the T/C under setting [7] is 98 % of control; the T/C under setting [8] was 96 % of control; the T/C under setting [9] is 89 % of control.
`CCCCCCCC(=O)O[C@H]1[C@H]2[C@@H](CC1(C)C)C(=O)[C@]13O[C@H]1C(=O)[C@]1(CO1)[C@]23C`: the T/C (dose: 1.25 mg/kg/injection, schedule: Q01DX009 (ip), vehicle: saline with Tween-80) is 100 % of control; the T/C (dose: 2.5 mg/kg/injection, schedule: Q01DX009 (ip), vehicle: saline with Tween-80) was 97 % of control; the T/C (dose: 5.0 mg/kg/injection, schedule: Q01DX009 (ip), vehicle: saline with Tween-80) is 102 % of control; the T/C (dose: 10.0 mg/kg/injection, schedule: Q01DX009 (ip), vehicle: saline with Tween-80) was 88 % of control.
Turning to `C[C@H](N)C(=O)N[C@@H]1[C@H]2C(=C(O)C[C@@H](O)[C@@H]2O)C(=O)O[C@]1(C)C(Cl)Cl`, the T/C by setting is: (dose: 0.19 mg/kg/injection, schedule: Q01DX009 (ip), vehicle: Klucel (hydroxypropylcellulose) (HPC)) 97 % of control; (dose: 0.38 mg/kg/injection, schedule: Q01DX009 (ip), vehicle: Klucel (hydroxypropylcellulose) (HPC)) 101 % of control; (dose: 0.75 mg/kg/injection, schedule: Q01DX009 (ip), vehicle: Klucel (hydroxypropylcellulose) (HPC)) 111 % of control; (dose: 1.5 mg/kg/injection, schedule: Q01DX009 (ip), vehicle: Klucel (hydroxypropylcellulose) (HPC)) 100 % of control.
